The assay addresses full-length MALT1 protein (Strep-MALT1(1-824)-His) (Homo sapiens (Human), UniProt Q9UDY8). Put plainly: MALT1 Biochemical Protease Assay. The note with it: read-out: MALT1_Biochemical activity (Ac-LRSR-amc) IC50; 10 nM FL MALT1, 200 μM Ac-LRSR-AMC, 50 min pre-incubation, 4 h at RT. From the text: From this an ICso value (inhibitory concentration causing 50% inhibition) can be obtained.

Structures are written as SMILES.

Sequence of full-length MALT1 protein (Strep-MALT1(1-824)-His) (Q9UDY8 whole entry): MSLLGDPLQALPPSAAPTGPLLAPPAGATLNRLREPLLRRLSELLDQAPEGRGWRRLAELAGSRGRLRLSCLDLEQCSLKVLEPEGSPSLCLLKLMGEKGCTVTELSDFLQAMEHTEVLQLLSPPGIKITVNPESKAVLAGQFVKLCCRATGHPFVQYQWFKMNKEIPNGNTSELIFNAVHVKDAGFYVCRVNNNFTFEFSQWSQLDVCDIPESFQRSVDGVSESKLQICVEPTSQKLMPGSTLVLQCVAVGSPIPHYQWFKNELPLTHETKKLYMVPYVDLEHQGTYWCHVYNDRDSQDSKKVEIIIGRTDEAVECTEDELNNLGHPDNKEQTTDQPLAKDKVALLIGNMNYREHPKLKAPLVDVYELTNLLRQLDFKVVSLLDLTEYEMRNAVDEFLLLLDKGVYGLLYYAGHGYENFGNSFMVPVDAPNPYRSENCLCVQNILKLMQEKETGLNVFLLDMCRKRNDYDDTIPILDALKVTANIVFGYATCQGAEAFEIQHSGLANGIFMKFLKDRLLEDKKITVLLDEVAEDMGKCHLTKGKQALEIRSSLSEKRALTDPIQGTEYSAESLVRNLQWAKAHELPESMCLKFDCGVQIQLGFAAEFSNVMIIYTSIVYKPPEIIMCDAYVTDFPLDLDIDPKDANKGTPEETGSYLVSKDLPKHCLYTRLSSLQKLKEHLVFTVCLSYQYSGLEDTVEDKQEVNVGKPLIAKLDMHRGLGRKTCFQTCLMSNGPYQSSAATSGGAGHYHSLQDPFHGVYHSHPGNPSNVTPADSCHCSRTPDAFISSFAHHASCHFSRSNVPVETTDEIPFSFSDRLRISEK

In the case of `O=C(Nc1cnc([C@H]2CCCO2)c(Cl)c1)c1cnn(-c2ccc(Cl)c3nccn23)c1C(F)(F)F` (single isomer, unassigned) [Cpd 18, (*R)—N-(5-chloro-6-(tetrahydrofuran-2-yl)pyridin-3-yl)-1-(8-chloroimidazo[1,2-a]pyridin-5-yl)-5-(trifluoromethyl)-1H-pyrazole-4-carboxamide], the IC50 (as a rule, the concentration that inhibits the measured activity by half) stood at 2190 nM. Consider `CO[C@H](C)c1ncc(NC(=O)c2cnn(-c3ccc(C#N)n4nccc34)c2C(F)(F)F)cc1Cl` (single isomer, unassigned) [Cpd 26, (*R)—N-(5-chloro-6-(1-methoxyethyl)pyridin-3-yl)-1-(7-cyanopyrazolo[1,5-a]pyridin-4-yl)-5-(trifluoromethyl)-1H-pyrazole-4-carboxamide], for which the IC50 came to 562 nM. `CO[C@H](C)c1ncc(NC(=O)c2cnn(-c3ccc(Cl)n4nccc34)c2C(F)(F)F)cc1Cl` (single isomer, unassigned) [Cpd 28, (*R)—N-(5-chloro-6-(1-methoxyethyl)pyridin-3-yl)-1-(7-chloropyrazolo[1,5-a]pyridin-4-yl)-5-(trifluoromethyl)-1H-pyrazole-4-carboxamide]: the concentration for half-maximal inhibition (IC50) stood at 1320 nM.

Take `CO[C@H](C)c1ncc(NC(=O)c2cnn(-c3ccc(F)c4nccn34)c2C(F)(F)F)cc1Cl` (single isomer, unassigned) [Cpd 19, (*R)—N-(5-chloro-6-(1-methoxyethyl)pyridin-3-yl)-1-(8-fluoroimidazo[1,2-a]pyridin-5-yl)-5-(trifluoromethyl)-1H-pyrazole-4-carboxamide]: the half-inhibitory concentration (IC50) was found to be 2820 nM. For the molecule `CS(C)(=O)=Nc1ncc(NC(=O)c2cnn(-c3ccc(F)c4nccn34)c2C(F)(F)F)cc1F` [Cpd 32, N-(6-((dimethyl(oxo)-λ^6-sulfanylidene)amino)-5-fluoropyridin-3-yl)-1-(8-fluoroimidazo[1,2-a]pyridin-5-yl)-5-(trifluoromethyl)-1H-pyrazole-4-carboxamide], the IC50 is 8130 nM. To `CO[C@@H](C)c1ncc(NC(=O)c2cnn(-c3ccc(C#N)n4nccc34)c2C(F)(F)F)cc1Cl` (single isomer, unassigned) [Cpd 25, (*S)—N-(5-chloro-6-(1-methoxyethyl)pyridin-3-yl)-1-(7-cyanopyrazolo[1,5-a]pyridin-4-yl)-5-(trifluoromethyl)-1H-pyrazole-4-carboxamide] belongs 457 nM; to `Cc1cc(NC(=O)c2cnn(-c3ccc(F)c4nccn34)c2C(F)(F)F)cnc1N=S(C)(C)=O` [Cpd 29, N-(6-((dimethyl(oxo)-λ^6-sulfanylidene)amino)-5-methylpyridin-3-yl)-1-(8-fluoroimidazo[1,2-a]pyridin-5-yl)-5-(trifluoromethyl)-1H-pyrazole-4-carboxamide], 6000 nM. On to `O=C(Nc1cnc([C@@H]2CCCO2)c(Cl)c1)c1cnn(-c2ccc(Cl)c3nccn23)c1C(F)(F)F` (single isomer, unassigned) [Cpd 20, (*S)—N-(5-chloro-6-(tetrahydrofuran-2-yl)pyridin-3-yl)-1-(8-chloroimidazo[1,2-a]pyridin-5-yl)-5-(trifluoromethyl)-1H-pyrazole-4-carboxamide], for which the IC50 turned out to be 355 nM. On to `CS(=O)(=O)c1c(C(=O)Nc2cnc(-n3nccn3)c(Cl)c2)cnn1-c1ccc(F)c2nccn12` [Cpd 8, N-(5-chloro-6-(2H-1,2,3-triazol-2-yl)pyridin-3-yl)-1-(8-fluoroimidazo[1,2-a]pyridin-5-yl)-5-(methylsulfonyl)-1H-pyrazole-4-carboxamide], for which the IC50 was 457 nM.

`N#Cc1ccc(-n2ncc(C(=O)Nc3cnc([C@H]4CCCO4)c(Cl)c3)c2C(F)(F)F)c2ccnn12` (single isomer, unassigned) [Cpd 24, (*R)—N-(5-chloro-6-(tetrahydrofuran-2-yl)pyridin-3-yl)-1-(7-cyanopyrazolo[1,5-a]pyridin-4-yl)-5-(trifluoromethyl)-1H-pyrazole-4-carboxamide]: the IC50 is 251 nM.

For the origin of these results see patent US10888550B2, “Pyrazole derivatives as MALT1 inhibitors” (Janssen Pharmaceutica NV, priority 2018, dated 2021).
